This is an account of results in patent publication US20030083483A1, “Molecular interaction sites of vimentin RNA and methods of modulating the same” (priority 1999, published 2003).

What is called pKd is the negative decadic logarithm of the Kd, by convention in mol/L.

For experiment [1], the target named is 27-mer model RNA sequence of the 16S A-site. Kind of experiment: MASS mass spectrometry binding assay with 16S A-site 27-mer RNA. Also on record: species or system prokaryotic. The method, then:
(§1) The compounds are screened for binding affinity using MASS or conventional high-throughput functional screens. The best scoring compounds from docking a 256-member library against the 16S A-site ribosomal RNA structure are shown in the table 5 below. The MASS assay was performed with the 27-mer model RNA sequence of the 16S A-site whose NMR structure has been determined. The transcription/translation assay was based on expression of a luciferase plasmid.
A preferred first step of MASS screening involves mixing the RNA target (or targets) with a combinatorial library of ligands designed to bind to a specific site on the target molecule(s). Specific noncovalent complexes formed in solution between the target(s) and any library members are transferred into the gas phase and ionized by ESI. As described herein, from the measured mass difference between the complex and the free target, the identity of the binding ligand can be determined. The dissociation constant of the complex can be determined in two ways: if a ligand with a known binding affinity for the target is available, a relative Kd can be measured by using the known ligand as an internal control and measuring the abundance of the unknown complex to the abundance of the control, alternatively, if no internal control is available, Kd's can be determined by making a series of measurements at different ligand concentrations and deriving a Kd value from the “titration” curve.
In a direct determination of solution phase dissociation constants (Kd's) by mass spectrometry, ESI-MS measurements of a solution containing a fixed concentration of RNA at different concentrations of ligand were obtained. By measuring the ratio of bound:unbound RNA at varying ligand concentrations, the Kd was determined by 1/slope of the “titration curve”. The MS derived value of 110 nM is in good agreement with previously reported literature value of 200 nM.
All mass spectrometry experiments were performed using an Apex II 70e electrospray ionization Fourier transform ion cyclotron resonance mass spectrometer (Bruker Daltonics, Billerica) employing an actively shielded 7 tesla superconducting magnet. RNA solutions were prepared in 50 mM NH4OAc (pH 7), mixed 1:1 v:v with isopropanol to aid desolvation, and infused at a rate of […] using a syringe pump. Ions were formed in a modified electrospray source (Analytica, Branford) employing an off axis, grounded electrospray probe positioned ca. 1.5 cm from the metalized terminus of the glass desolvation capillary biased at 5000 V. A counter-current flow of dry […] gas heated to 225C was employed to assist in the desolvation process. Ions were accumulated in an external ion reservoir comprised of an RF-only hexapole, a skimmer cone, and an auxiliary electrode for 1000 ms prior to transfer into the trapped ion cell for mass analysis. Each spectrum was the result of the coaddition of 16 transients comprised of […] acquired over a 90,909 kHz bandwidth resulting in a 700 ms detection interval. All aspects of pulse sequence control, data acquisition, and post acquisition processing were performed using a Bruker Daltonics datastation running XMASS version 4.0 on a Silicon Graphics (San Jose, Calif.) R5000 computer.
Mass spectrometry experiments were performed in order to detect complex formation between a library containing five aminoglycosides (Sisomicin (Sis), Tobramycin (Tob), Bekanomycin (Bek), Paromomycin (PM), and Livodomycin (LV)) and two RNA targets simultaneously. Signals from the (M-5H+)^5− charge states of free 16S and 18S RNAs are detected at m/z 1801.515 and 1868.338, respectively. The mass spectrometric assay reproduces the known solution binding properties of aminoglycosides to the 16S A site model and an 18S A site model with a neutral mass linker. Consistent with the higher binding affinity of theses aminoglycosides for the 16S A-site relative to the 18S A-site, aminoglycoside complexes are observed only with the 16S rRNA target. […]

For experiment [2], the system named is protein synthesis (luciferase reporter). Kind of experiment: transcription/translation assay based on expression of a luciferase plasmid. In kind it is biochemical. As to conditions: unit printed only in the Paromomycin cell and b169. The method, then:
as §1

For the next experiment, the system named is 18S A site model. Kind of experiment: ESI-FTICR mass spectrometric complex detection with 18S A-site model RNA. In kind it is binding, eukaryotic. As to conditions: mixture of five aminoglycosides, 16S and 18S targets simultaneously. The method, then: Paromomycin, lividomycin (MW=761.354 Da), sisomicin (MW=447.269 Da), tobramycin (MW=467.2591 Da), and bekanamycin (MW=483.254 Da) were obtained from Sigma (St. Louis, Mo.) and ICN (Costa Mesa, Calif.) and were dissolved to generate 10 mM stock solutions. 2′ methoxy analogs of RNA constructs representing the prokaryotic (16S) rRNA and eukaryotic (18S) rRNA A-site were synthesized in house and precipitated twice from 1 M ammonium acetate following deprotection with ammonia (pH 8.5). The mass-tagged constructs contained an 18-atom mass tag (C12H2509) attached to the 5′-terminus of the RNA oligomer through a phosphodiester linkage.
All mass spectrometry experiments were performed using an Apex II 70e electrospray ionization Fourier transform ion cyclotron resonance mass spectrometer (Bruker Daltonics, Billerica) employing an actively shielded 7 tesla superconducting magnet. […]
Mass spectrometry experiments were performed in order to detect complex formation between a library containing five aminoglycosides (Sisomicin (Sis), Tobramycin (Tob), Bekanomycin (Bek), Paromomycin (PM), and Livodomycin (LV)) and two RNA targets simultaneously. Signals from the (M-5H+)^5− charge states of free 16S and 18S RNAs are detected at m/z 1801.515 and 1868.338, respectively. […]

The target in the next experiment is 16S A-site RNA. As to conditions: previously reported / solution value for 16S A site; read-out: literature Kd; cited from earlier work.

pKd: −log10 of the molar value. Read-outs that look alike come from different tables or passages of the source.

Regarding `NC[C@@H]1O[C@H](O[C@H]2[C@@H](O)[C@H](O[C@@H]3[C@@H](O)[C@H](N)C[C@H](N)[C@H]3O[C@H]3O[C@H](CO)[C@@H](O)[C@H](O)[C@H]3N)O[C@@H]2CO)[C@H](N)[C@@H](O)[C@@H]1O` [Paromomycin], the pKd was 6.96 in experiment [1] (16S A site 27mer, ESI-MS titration, read-out: KD measured by mass spectrometry); 6.30 in experiment [1] (27-mer model RNA of the 16S A-site, unit printed only in the Paromomycin cell and b169, read-out: MASS KD); 6.70 at 16S A-site RNA. Also, the “complexes detected with the 16S A site 27mer RNA” value in experiment [1] (ESI-FTICR, mixture of five aminoglycosides, 16S and 18S targets simultaneously) was “High affinity complexes”. Besides, the “Activity: Inhibition of protein synthesis in transcription/translation assay for luciferase reporter” value in experiment [2] was 0.3 µM. Further, the “complexes with the 18S A site model” value with 18S A site model is “absence”.
